# Measurements reported in ChEMBL document CHEMBL1909046, “DrugMatrix in vitro pharmacology data”.
# Assays:
# [1] = DRUGMATRIX: Sodium/nucleoside co-transporter radioligand binding (ligand: nitrobenzylthioinosine); assay type: cell membranes, Cavia porcellus, Dunkin-Hartley, Cerebral cortex, Membrane; conditions: Not Active = under 50% inhibition at 10 µM
# [2] = DRUGMATRIX: Glutamate, AMPA radioligand binding (ligand: [3H] AMPA); assay type: cell membranes, Rattus norvegicus, Wistar, Cerebral cortex, Membrane; conditions: Not Active = under 50% inhibition at 10 µM
# [3] = DRUGMATRIX: Serotonin (5-Hydroxytryptamine) 5-HT3 radioligand binding (ligand: [3H] GR-65630); assay type: cell membranes, Membrane; conditions: hek293; Not Active = under 50% inhibition at 10 µM
# [4] = DRUGMATRIX: Potassium Channel [KATP] radioligand binding (ligand: [3H] Glyburide); assay type: cell membranes, Membrane; conditions: hit-t15; Not Active = under 50% inhibition at 10 µM
# Estrogen receptor = target: T1, Estrogen receptor (Homo sapiens, UniProt P03372); conditions: sf9; further: in other assays of this panel Not Active means under 50% inhibition at 10 µM
# T1 sequence (P03372 whole entry): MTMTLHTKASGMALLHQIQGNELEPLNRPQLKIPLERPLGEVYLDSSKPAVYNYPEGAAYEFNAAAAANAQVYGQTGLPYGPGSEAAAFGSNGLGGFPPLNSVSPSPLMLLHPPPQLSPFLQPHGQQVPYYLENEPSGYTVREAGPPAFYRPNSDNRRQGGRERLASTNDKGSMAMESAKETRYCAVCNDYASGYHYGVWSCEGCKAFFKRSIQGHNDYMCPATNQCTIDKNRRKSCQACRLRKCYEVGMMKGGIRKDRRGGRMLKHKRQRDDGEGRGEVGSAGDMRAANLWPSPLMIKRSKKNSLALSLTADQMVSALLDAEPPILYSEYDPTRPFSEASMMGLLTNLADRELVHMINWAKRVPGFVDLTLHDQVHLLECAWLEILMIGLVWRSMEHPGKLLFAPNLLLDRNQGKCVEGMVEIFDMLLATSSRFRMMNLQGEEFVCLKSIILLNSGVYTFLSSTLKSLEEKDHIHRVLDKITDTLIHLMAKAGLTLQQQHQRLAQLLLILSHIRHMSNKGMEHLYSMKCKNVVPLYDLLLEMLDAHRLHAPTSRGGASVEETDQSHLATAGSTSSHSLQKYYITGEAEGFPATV
# [5] = DRUGMATRIX: Phorbol Ester radioligand binding (ligand: [3H] PDBu); assay type: cell membranes, Mus musculus, ICR, Brain, Membrane; conditions: Not Active = under 50% inhibition at 10 µM
# [6] = target: T2, Alpha-1B adrenergic receptor (Rattus norvegicus, UniProt P15823); assay: DRUGMATRIX: Alpha-1B adrenergic receptor radioligand binding (ligand: prazosin); assay type: cell membranes, Wistar, Liver, Membrane; conditions: Not Active = under 50% inhibition at 10 µM
# T2 sequence (P15823 whole entry): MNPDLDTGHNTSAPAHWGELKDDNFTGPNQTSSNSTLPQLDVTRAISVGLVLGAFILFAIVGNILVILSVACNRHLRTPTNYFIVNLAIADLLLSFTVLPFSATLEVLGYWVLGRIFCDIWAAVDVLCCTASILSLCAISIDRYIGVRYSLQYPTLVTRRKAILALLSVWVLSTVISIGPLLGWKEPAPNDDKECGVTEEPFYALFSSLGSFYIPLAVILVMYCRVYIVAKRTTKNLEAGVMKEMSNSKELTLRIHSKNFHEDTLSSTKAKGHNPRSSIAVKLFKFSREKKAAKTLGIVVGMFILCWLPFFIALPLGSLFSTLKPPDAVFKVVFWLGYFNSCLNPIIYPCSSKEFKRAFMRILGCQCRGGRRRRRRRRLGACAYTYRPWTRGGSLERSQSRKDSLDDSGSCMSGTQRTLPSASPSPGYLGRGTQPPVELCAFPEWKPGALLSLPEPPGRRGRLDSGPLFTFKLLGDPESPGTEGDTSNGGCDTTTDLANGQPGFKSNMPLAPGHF
# [7] = DRUGMATRIX: Glutamate, NMDA, Agonism radioligand binding (ligand: [3H] CGP-39653); assay type: cell membranes, Rattus norvegicus, Wistar, Cerebral cortex, Membrane; conditions: Not Active = under 50% inhibition at 10 µM
# [8] = DRUGMATRIX: Interleukin IL-1 radioligand binding (ligand: [125I] interleukin 1beta); assay type: cell membranes, Membrane; conditions: nih3t3; Not Active = under 50% inhibition at 10 µM
Compound,IC50 [1],Ki [1],IC50 [2],Ki [2],IC50 [3],Ki [3],IC50 [4],Ki [4],IC50 (Estrogen receptor),IC50 [5],Ki [5],IC50 [6],IC50 [7],Ki [7],IC50 [8],Ki [8],IC50 ([1]; read-out: IC50) [µM],Ki ([1]; read-out: Ki) [µM]
CCCCC(=O)N(Cc1ccc(-c2ccccc2-c2nnn[nH]2)cc1)[C@H](C(=O)O)C(C)C,Not Active,Not Active,Not Active,Not Active,Not Active,Not Active,Not Active,Not Active,Not Active,Not Active,Not Active,Not Active,Not Active,Not Active,Not Active,Not Active,,
O=C(O)COc1ccc(C(=O)c2cccs2)c(Cl)c1Cl,Not Active,Not Active,Not Active,Not Active,Not Active,Not Active,Not Active,Not Active,Not Active,Not Active,Not Active,Not Active,Not Active,Not Active,Not Active,Not Active,,
CN1[C@@H]2CC[C@H]1C[C@@H](OC(c1ccccc1)c1ccccc1)C2 [BENZTROPINE],,,,,,,,,Not Active,,,,,,,,,
C[C@@](Cc1ccc(O)c(O)c1)(NN)C(=O)O.O [CARBIDOPA],Not Active,Not Active,Not Active,Not Active,Not Active,Not Active,Not Active,Not Active,,Not Active,Not Active,Not Active,Not Active,Not Active,Not Active,Not Active,,
CN1CCN(C2=Nc3cc(Cl)ccc3Nc3ccccc32)CC1 [CLOZAPINE],,,,,,,,,Not Active,,,,,,,,,
"O=C(O)CCCCC1CCSS1 (stereo not drawn) [LIPOIC ACID, ALPHA]",Not Active,Not Active,Not Active,Not Active,Not Active,Not Active,Not Active,Not Active,Not Active,Not Active,Not Active,Not Active,Not Active,Not Active,Not Active,Not Active,,
CN(C)C(=O)C(CCN1CCC(O)(c2ccc(Cl)cc2)CC1)(c1ccccc1)c1ccccc1 [LOPERAMIDE],,,,,,,,,Not Active,,,,,,,,,
Clc1ccc(COC(Cn2ccnc2)c2ccc(Cl)cc2Cl)c(Cl)c1 (stereo unspecified) [MICONAZOLE],,,,,,,,,Not Active,,,,,,,,,
Oc1ccc2c3c1O[C@H]1[C@@H](O)CC[C@@]4(O)[C@@H](C2)N(CC2CCC2)CC[C@]314 [NALBUPHINE],,,,,,,,,Not Active,,,,,,,,,
C[C@]12C=CC(=O)C=C1CC[C@@H]1[C@@H]2C(=O)C[C@@]2(C)[C@H]1CC[C@]2(O)C(=O)CO [PREDNISONE],,,Not Active,Not Active,Not Active,Not Active,Not Active,Not Active,Not Active,Not Active,Not Active,Not Active,Not Active,Not Active,Not Active,Not Active,4.95,1.69
COC(=O)[C@H]1[C@H]2C[C@@H]3c4[nH]c5cc(OC)ccc5c4CCN3C[C@H]2C[C@@H](OC(=O)c2cc(OC)c(OC)c(OC)c2)[C@@H]1OC [RESERPINE],Not Active,Not Active,Not Active,Not Active,Not Active,Not Active,Not Active,Not Active,,Not Active,Not Active,Not Active,Not Active,Not Active,Not Active,Not Active,,
O=C(O)c1ccccc1O [SALICYLIC ACID],Not Active,Not Active,Not Active,Not Active,Not Active,Not Active,Not Active,Not Active,Not Active,Not Active,Not Active,Not Active,Not Active,Not Active,Not Active,Not Active,,
C[S+]([O-])c1ccc(-c2nc(-c3ccncc3)c(-c3ccc(F)cc3)[nH]2)cc1 (stereo unspecified) [SB-203580],,,,,,,,,Not Active,,,,,,,,,
CC1CCC(NC(=O)N(CCCl)N=O)CC1 (stereo unspecified) [SEMUSTINE],Not Active,Not Active,Not Active,Not Active,Not Active,Not Active,Not Active,Not Active,Not Active,Not Active,Not Active,Not Active,Not Active,Not Active,Not Active,Not Active,,
O=C1C[C@@H]2OCC=C3CN4CC[C@]56c7ccccc7N1[C@H]5[C@H]2[C@H]3C[C@H]46 [STRYCHNINE],Not Active,Not Active,Not Active,Not Active,Not Active,Not Active,Not Active,Not Active,,Not Active,Not Active,Not Active,Not Active,Not Active,Not Active,Not Active,,
CCCCCCCCNC(C)C(O)c1ccc(SC(C)C)cc1 (stereo unspecified) [SULOCTIDIL],Not Active,Not Active,Not Active,Not Active,Not Active,Not Active,Not Active,Not Active,Not Active,Not Active,Not Active,Not Active,Not Active,Not Active,,,,
O=c1[nH]c(=O)n(C2CCCO2)cc1F (stereo unspecified) [TEGAFUR],Not Active,Not Active,Not Active,Not Active,Not Active,Not Active,Not Active,Not Active,,Not Active,Not Active,Not Active,Not Active,Not Active,Not Active,Not Active,,
CC(=N)S [THIOACETAMIDE],Not Active,Not Active,Not Active,Not Active,Not Active,Not Active,Not Active,Not Active,,Not Active,Not Active,Not Active,Not Active,Not Active,Not Active,Not Active,,
CC(=O)OCC(COC(C)=O)OC(C)=O [TRIACETIN],Not Active,Not Active,Not Active,Not Active,Not Active,Not Active,Not Active,Not Active,,Not Active,Not Active,Not Active,Not Active,Not Active,Not Active,Not Active,,
CN1CCN(CCCN2c3ccccc3Sc3ccc(C(F)(F)F)cc32)CC1 [TRIFLUOPERAZINE],Not Active,Not Active,Not Active,Not Active,Not Active,Not Active,Not Active,Not Active,,Not Active,Not Active,Not Active,Not Active,Not Active,Not Active,Not Active,,
